From US20130331378A1, “PYRAZOLOPYRIDINE DERIVATIVE OR PHARMACOLOGICALLY ACCEPTABLE SALT THEREOF” (KISSEI PHARMACEUTICAL CO., LTD., priority 2011, published 2013)

Molecular target: T1, rat EP1 receptor (Rattus norvegicus, UniProt P70597)
T1 construct: expressed in transfected cells
T1 sequence (P70597 1-405): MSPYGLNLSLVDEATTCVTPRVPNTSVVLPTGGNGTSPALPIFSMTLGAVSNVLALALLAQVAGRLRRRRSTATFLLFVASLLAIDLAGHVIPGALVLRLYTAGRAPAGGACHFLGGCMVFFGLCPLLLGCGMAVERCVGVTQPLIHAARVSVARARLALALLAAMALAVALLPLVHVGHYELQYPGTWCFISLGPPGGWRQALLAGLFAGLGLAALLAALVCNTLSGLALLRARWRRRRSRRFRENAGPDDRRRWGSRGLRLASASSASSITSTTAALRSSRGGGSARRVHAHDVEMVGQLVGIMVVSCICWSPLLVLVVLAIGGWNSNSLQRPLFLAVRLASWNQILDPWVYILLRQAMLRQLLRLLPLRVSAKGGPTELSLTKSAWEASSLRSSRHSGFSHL
Test: Test for confirming EP1 receptor antagonistic effect: suppression of prostaglandin E2-induced rise in intracellular calcium concentration
Assay type: cell-based
Settings: rat EP1 receptor-expressing COS-1 cells; prostaglandin E2 10 nM; Fluo 4-AM fluorescent signal; test compound 0.1 nM to 10 μM
Experimental: (1) Preparation of Rat EP1 Expression Vector
The first PCR was performed with Rat Kidney BD Marathon-Ready cDNA (Nippon Becton Dickinson Co., Ltd.) as a template using a forward primer represented by SEQ ID NO: 1 and a reverse primer represented by SEQ ID NO: 2 and using KOD-Plus-Ver 2.0 (Toyobo Co., Ltd.). The second PCR was further performed in a similar manner with this amplification product as a template using a forward primer represented by SEQ ID NO: 3 and a reverse primer represented by SEQ ID NO: 4. The amplification product obtained by the second PCR was incorporated into a vector (pcDNA3.1 D/V5-His-TOPO (registered trademark), Invitrogen Corporation). This vector with the incorporated amplification product was introduced to E. coli (One Shot TOP10 Competent Cell, Invitrogen Corporation) by a conventional method to perform transformation. This transformed E. coli was cultured for 1 day in an LB agar medium. After the culture, colonies were selected and cultured in an LB liquid medium containing 50 μg/mL of ampicillin. After the culture, the vector was purified using QIAprep Spin Miniprep Kit (Qiagen Corporation). The base sequence (SEQ ID NO: 5) of the inserted site in this vector was compared with the base sequence (Ptger1) of rat EP1 registered under Accession No. NM_013100 in a heretofore known database (NCBI) and consequently was completely identical except for 1 base. Moreover, an amino acid sequence translated from this base sequence was completely identical to the amino acid sequence of the rat EP1 receptor registered under Accession No. NP_037232 in NCBI. Thus, it was confirmed that the cloned gene sequence was the base sequence of the rat EP1 receptor and the obtained amino acid sequence was the rat EP1 receptor. The pcDNA3.1 D/V5-His-TOPO (registered trademark) in which the nucleic acid represented by SEQ ID NO: 5 was inserted was used as a rat EP1 expression vector.
(2) Preparation of Rat EP1 Receptor-Expressing Cell
COS-1 cells (Dainippon Sumitomo Pharma Co., Ltd.) were cultured at 37° C. in an incubator under 5% CO2 gas conditions using a D-MEM liquid medium (containing high glucose and L-glutamine, Invitrogen Corporation) supplemented with a penicillin-streptomycin solution (Invitrogen Corporation, final concentration: 100 U/mL as benzylpenicillin; 100 μg/mL as streptomycin) as antibiotics, MEM non-essential amino acids (Invitrogen Corporation, final concentration: 0.1 mM), and fetal bovine serum (Moregate Biotech, final concentration: 10%), until reaching confluence.
The cells that reached confluence were dissociated with 0.05% trypsin/0.53 mM EDTA.4Na (Invitrogen Corporation) and resuspended in the liquid medium. The resuspended cells were diluted with the liquid medium so that the spread ratio became 1:4 to 1:8, and were cultured.
The cells that reached confluence were dissociated with 0.05% trypsin/0.53 mM EDTA.4Na and resuspended in a D-MEM liquid medium (containing high glucose and L-glutamine, Invitrogen Corporation) supplemented with MEM non-essential amino acids (final concentration: 0.1 mM) and fetal bovine serum (final concentration: 10%). This resuspended cell suspension was prepared with a liquid medium so as to become the number of cells 5×10^4 cells/100 μL of the liquid medium/well in each well of a poly-D-lysine-coated 96-well microplate (BD BioCoat (registered trademark), Nippon Becton Dickinson Co., Ltd.), and this cell preparation was dispensed at 100 μL to each well and seeded. After the seeding, the cells were cultured at 37° C. in an incubator under 5% CO2 gas conditions. The introduction of the rat EP1 expression vector was performed by procedures shown below at the point in time when the cells for introduction of this rat EP1 expression vector adhered (approximately 2 hours after the seeding).
Lipofectamine 2000 (Invitrogen Corporation) was used for the introduction of the rat EP1 expression vector. […]

Compound	IC50
COc1ccc2c(Cc3ccc(C(=O)O)o3)c(-c3ccccc3)nn2c1 [Example 3-6, 5-[(6-Methoxy-2-phenylpyrazolo[1,5-a]pyridin-3-yl)methyl]furan-2-carboxylic acid]	60 nM
COc1ccc2c(Cc3cccc(C(=O)O)n3)c(-c3ccsc3)nn2c1 [Example 3-32, 6-[[6-Methoxy-2-(thiophen-3-yl)pyrazolo[1,5-a]pyridin-3-yl]methyl]pyridine-2-carboxylic acid]	43 nM
O=C(O)c1cccc(Cc2c(N3CCCCC3)nn3cc(Cl)ccc23)n1 [Example 12-26, 6-[[6-Chloro-2-(piperidin-1-yl)pyrazolo[1,5-a]pyridin-3-yl]methyl]pyridine-2-carboxylic acid]	79 nM
CC(C)(C)c1nn2cc(Cl)ccc2c1Cc1cccc(C(=O)O)n1 [Example 12-23, 6-[(2-tert-Butyl-6-chloropyrazolo[1,5-a]pyridin-3-yl)methyl]pyridine-2-carboxylic acid]	48 nM
O=C(O)c1csc(Cc2c(-c3ccccc3)nn3cc(Cl)ccc23)n1 [Example 12-7]	110 nM
COc1ccc2c(Cc3cccc(-c4nnn[nH]4)n3)c(-c3ccccc3)nn2c1 [Example 2-1, 6-Methoxy-2-phenyl-3-[[6-(1H-tetrazol-5-yl)pyridin-2-yl]methyl]pyrazolo[1,5-a]pyridine]	56 nM
CSc1ccc2c(Cc3cccc(C(=O)O)n3)c(-c3ccccc3)nn2c1 [Example 12-17, 6-[[6-(Methylthio)-2-phenylpyrazolo[1,5-a]pyridin-3-yl]methyl]pyridine-2-carboxylic acid]	87 nM
S=c1[nH]c(-c2cccc(Cc3c(-c4ccccc4)nn4cc(Cl)ccc34)n2)no1 [Example 26-1]	70 nM
CC1(c2nn3cc(Cl)ccc3c2Cc2cccc(C(=O)O)n2)CC1 [Example 12-36, 6-[[6-Chloro-2-(1-methylcyclopropyl)pyrazolo[1,5-a]pyridin-3-yl]methyl]pyridine-2-carboxylic acid]	160 nM
O=c1[nH]c(-c2cccc(Cc3c(-c4ccccc4)nn4cc(Cl)ccc34)n2)no1 [Example 25-1]	46 nM
COc1ccc2c(Cc3cccc(C(=O)O)n3)c(C3CCCC3)nn2c1 [Example 3-18, 6-[(2-Cyclopentyl-6-methoxypyrazolo[1,5-a]pyridin-3-yl)methyl]pyridine-2-carboxylic acid]	170 nM
CS(=O)(=O)NC(=O)c1cccc(Cc2c(-c3ccccc3)nn3cc(Cl)ccc23)n1 [Example 23-1, 6-[(6-Chloro-2-phenylpyrazolo[1,5-a]pyridin-3-yl)methyl]-N-(methylsulfonyl)pyridine-2-carboxamide]	62 nM

Now those with a lower IC50, led by results:

IC50	Compound
39 nM	COc1ccc2c(Cc3cccc(C(=O)O)n3)c(C(C)(C)C)nn2c1 [Example 3-15, 6-[(2-tert-Butyl-6-methoxypyrazolo[1,5-a]pyridin-3-yl)methyl]pyridine-2-carboxylic acid]
39 nM	O=C(O)c1cccc(Cc2c(-c3cccc(F)c3)nn3cc(Cl)ccc23)n1 [Example 12-38, 6-[[6-Chloro-2-(3-fluorophenyl)pyrazolo[1,5-a]pyridin-3-yl]methyl]pyridine-2-carboxylic acid]
29 nM	O=C(O)c1cccc(Cc2c(-c3ccccc3)nn3cc(Cl)ccc23)c1 [Example 3-2, 3-[(6-Chloro-2-phenylpyrazolo[1,5-a]pyridin-3-yl)methyl]benzoic acid]
21 nM	C=Cc1ccc2c(Cc3cccc(C(=O)O)n3)c(-c3ccccc3)nn2c1 [Example 3-11, 6-[(2-Phenyl-6-vinylpyrazolo[1,5-a]pyridin-3-yl)methyl]pyridine-2-carboxylic acid]
19 nM	Cc1ccc2c(Cc3cccc(C(=O)O)n3)c(-c3ccccc3)nn2c1 [Example 3-21, 6-[(6-Methyl-2-phenylpyrazolo[1,5-a]pyridin-3-yl)methyl]pyridine-2-carboxylic acid]
19 nM	O=C(O)c1cccc(Cc2c(-c3ccccc3)nn3cc(C(F)(F)F)ccc23)n1 [Example 3-22, 6-[[2-Phenyl-6-(trifluoromethyl)pyrazolo[1,5-a]pyridin-3-yl]methyl]pyridine-2-carboxylic acid]
16 nM	COc1ccc2c(Cc3cccc(C(=O)O)n3)c(-c3ccc(F)cc3)nn2c1 [Example 3-24, 6-[[2-(4-Fluorophenyl)-6-methoxypyrazolo[1,5-a]pyridin-3-yl]methyl]pyridine-2-carboxylic acid]
11 nM	O=C(O)c1cccc(Cc2c(-c3ccccc3)nn3cc(Br)ccc23)n1 [Example 3-14, 6-[(6-Bromo-2-phenylpyrazolo[1,5-a]pyridin-3-yl)methyl]pyridine-2-carboxylic acid]
11 nM	COc1ccc2c(Cc3cccc(C(=O)O)c3)c(-c3ccccc3)nn2c1 [Example 3-4, 3-[(6-Methoxy-2-phenylpyrazolo[1,5-a]pyridin-3-yl)methyl]benzoic acid]
6 nM	COc1ccc2c(Cc3cccc(C(=O)O)n3)c(-c3ccccc3)nn2c1 [Example 3-5, 6-[(6-Methoxy-2-phenylpyrazolo[1,5-a]pyridin-3-yl)methyl]pyridine-2-carboxylic acid]
2.9 nM	COc1ccc2c(Cc3cccc(C(=O)O)n3)c(-c3cccc(F)c3)nn2c1 [Example 12-53, 6-[[2-(3-Fluorophenyl)-6-methoxypyrazolo[1,5-a]pyridin-3-yl]methyl]pyridine-2-carboxylic acid]
2.5 nM	Clc1ccc2c(Cc3cccc(-c4nnn[nH]4)n3)c(-c3ccccc3)nn2c1 [Example 28-1, 6-Chloro-2-phenyl-3-[[6-(1H-tetrazol-5-yl)pyridin-2-yl]methyl]pyrazolo[1,5-a]pyridine]
